2 compounds from publication PMC7217186 (The Febs Journal, 2019) can be followed below.

Each structure is given as a SMILES string.

This experiment deals with T1, TKS (tetraketide synthase) (Cannabis sativa, UniProt B1Q2B6).
T1 construct: gene OLS; codon-optimised gene in pETM11, N-terminal TEV-cleavable His6 tag, cut from wild type after purification; E. coli BL21(DE3); dimer (two dimers in asymmetric unit); Cys157 oxidised to sulfinic acid in crystal
Put plainly: LC-MS of products (olivetol, PDAL, HTAL). The class given is biochemical. Conditions: 10 μM hexanoyl-CoA, 30 μM malonyl-CoA, 10 μM enzyme, 25 mM Tris pH 8, 150 mM NaCl, 5% glycerol, 25 °C, overnight.

T1 sequence (B1Q2B6 2-385): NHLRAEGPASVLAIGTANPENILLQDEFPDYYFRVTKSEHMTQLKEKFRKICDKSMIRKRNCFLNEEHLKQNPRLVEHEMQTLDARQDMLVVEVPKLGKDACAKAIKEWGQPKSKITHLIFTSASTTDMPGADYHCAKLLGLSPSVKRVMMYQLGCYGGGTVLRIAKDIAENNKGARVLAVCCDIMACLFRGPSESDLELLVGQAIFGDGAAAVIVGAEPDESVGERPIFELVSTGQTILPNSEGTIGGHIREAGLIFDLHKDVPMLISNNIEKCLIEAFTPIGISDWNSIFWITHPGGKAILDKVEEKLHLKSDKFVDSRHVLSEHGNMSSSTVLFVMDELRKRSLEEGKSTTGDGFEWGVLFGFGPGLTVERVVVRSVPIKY

With `CC(C)(COP(=O)(O)OP(=O)(O)OC[C@H]1O[C@@H](n2cnc3c(N)ncnc32)[C@H](O)[C@@H]1OP(=O)(O)O)[C@@H](O)C(=O)NCCC(=O)NCCSC(=O)CC(=O)O` [malonyl-CoA], the “LC-MS of products (olivetol, PDAL, HTAL)” value is “A major product generated by TKS with malonyl‐CoA and hexanoyl‐CoA was identified as olivetol”.
Turning to `CCCCCC(=O)SCCNC(=O)CCNC(=O)[C@H](O)C(C)(C)COP(=O)(O)OP(=O)(O)OC[C@H]1O[C@@H](n2cnc3c(N)ncnc32)[C@H](O)[C@@H]1OP(=O)(O)O` [hexanoyl-CoA], the “LC-MS of products (olivetol, PDAL, HTAL)” value was “A major product generated by TKS with malonyl‐CoA and hexanoyl‐CoA was identified as olivetol”.
